Measured values reported in paper PMC2759687 (Journal of medicinal chemistry, 2009).
Square brackets hold non-standard residues; d marks the D form. Peptide text beside a SMILES is read from it. Orn = NCCC[C@H](N)C(=O)O

Legend:
Assay in all cases: Mean activity
Type in all cases: cell-based
Gram-positive bacteria = settings: geometric mean of MIC values (after 24 h) against 7 Gram-positive strains
Gram-negative bacteria = settings: geometric mean of MIC values (after 24 h) against 7 Gram-negative strains
fungi = settings: geometric mean of MIC values (after 24 h) against 2 fungal strains

CC(C)C[C@@H]1NC(=O)[C@H](CCCN)NC(=O)[C@H](C(C)C)NC(=O)[C@@H]2CCCN2C(=O)[C@@H](Cc2ccccc2)NC(=O)[C@H](CC(C)C)NC(=O)[C@H](CCCN)NC(=O)[C@H](C(C)C)NC(=O)[C@@H]2CCCN2C(=O)[C@@H](Cc2ccccc2)NC1=O [GS, gramicidin S] (cyclo(V[Orn]L[dF]PV[Orn]L[dF]P))
Mean activity, Gram-positive bacteria (Gram-positive bacteria): 1.4 µg/mL
Mean Activity, Gram-negative bacteria (Gram-negative bacteria): 23.8 µg/mL
Mean activity, fungi (fungi): 2.8 µg/mL
